From patent US7700375B2, “Fluorescent labeling of specific protein targets in vitro and in vivo” (Valorisation-Recherche, LP, priority 2004, dated 2010)
Converted amounts (≈) assume the structure as drawn.

What was measured:
mCys-Fos = biological target: T1, mCys-Fos (Homo sapiens, UniProt P01100, C204S); assay: Protein labeling in vitro, SDS-PAGE with UV illumination; type: biochemical; conditions: 0.242 mM protein, 0.5 mM of 20 or 0.05 mM of 13, 25° C. overnight
T1 construct: the C99S mutant of a fragment of Fos; His-tag (N); made in house; host or cells: XL1-blue E. coli
Experimental: (§1) As mentioned in the introduction, an α-helical protein was designed to bear two cysteine residues, separated by a distance complementary to that between the maleimide groups of the designated fluorogen. The protein chosen as a starting point for this design was the C99S mutant of a fragment of Fos,^21 a known α-helical protein^22 whose recombinant expression has been published.^23 Site-directed mutagenesis was then performed^20,35 to introduce a cysteine residue (L56C), separated by two turns of the α-helical motif from the native Cys49, positioning the protein's only two thiol groups approximately 10 Å apart.^36 Although at higher concentrations, Fos is known to form a homodimer,^22 the distance between the intermolecular cysteine residues in this putative homodimer would render their reaction with a single fluorogen molecule impossible. […]
(§2) Purified mCys-Fos and diCys-Fos were then tested in vitro for their ability to react with fluorogens 13 and 20. After incubation of 0.242 mM protein with 0.5 mM of 20 or 0.05 mM of 13 at 25° C. overnight, glycerol was added and the reaction mixtures were analyzed by SDS-PAGE using UV illumination and then Coomassie blue staining. […]

diCys-Fos [1] = biological target: T2, diCys-Fos (Homo sapiens, UniProt P01100, C204S/L161C); assay: Labeling in lysate of E. coli cells expressing diCys-Fos, SDS-PAGE; type: biochemical; conditions: overnight at 25° C.
Experimental: The specificity of the dithiol addition reaction of 20 with diCys-Fos in the presence of other proteins was also confirmed through a simple in vitro experiment. The lysate of E. coli cells expressing diCys-Fos was allowed to react with 20 overnight at 25° C. prior to analysis by SDS-PAGE.

Solubility = type: physicochemical
Experimental: (§3) Comparison of the fluorescent properties^34 of the four different parent fluorogens (and their corresponding thiol adducts) studied herein (see Table 2) substantiates our retention of compounds 13 and 20 as candidates for further tests with proteins.
(§4) Finally, we wished to determine if fluorogens such as 13 and 20 were cytotoxic. […] Furthermore, even at 300 μM 20, the limit of its solubility in cell culture, 70% of COS cells were still viable (FIG. 8). […] The convenience of the application of this fluorescent labeling method is obvious from the low cytoxocity of 20, even at concentrations 30 times greater than those necessary for efficient labeling.

COS cells = assay: Cytotoxicity, MTT and PI assays; type: cell-based
Experimental: as §4

diCys-Fos [2] = biological target: T2, diCys-Fos; assay: Protein labeling in living COS cells expressing diCys-Fos fused to RBD of Raf; type: cell-based; set-up: the C99S mutant of a fragment of Fos; expressed in transfected cells; host or cells: COS cells
Experimental: The ultimate proof of principle for this method is its successful application to labeling a specific protein in living eukaryotic cells. To test for this potential, our diCys-Fos probe protein was genetically fused to RBD, the Ras-binding domain of Raf, and COS cells were then transfected with the expression plasmid for this fusion protein. A solution of 20 was then added to cultures of COS cells expressing diCys-Fos as well as mock COS cells transfected with an empty expression plasmid.

[3] = Fluorescence spectral properties of fluorogens and their ethanethiol adducts; type: physicochemical; conditions: 10:90 DMSO: water
Experimental: For the application of this fluorogenic reaction to the detection of thiols and dithiols, two important criteria are the fluorescence intensity of the thiol addition product and the ratio of its fluorescence compared to its parent fluorogen. We studied the effect of electron withdrawing and donating substituants on these criteria by preparing the derivatives of fluorogen 4 shown in Scheme 1. Fluorogen 5, bearing an electron withdrawing ester group, was prepared according to a protocol similar to that used for fluorogen 4, but using an ester-substituted maleic anhydride derived by oxidation of dimethyl L-tartrate according to a published procedure.^31 Fluorogen 6 bears an electron donating methyl group and was obtained in similar yield by adaptation of the standard literature protocol,^25 using citraconic anhydride. The reaction of 5 and 6 with ethanethiol in DMSO led to the formation of thiol adducts 8 and 9, whose fluorescence was characterized as shown in Table 1. Even from this small series, certain tendencies are apparent. Increasing the electron donating capacity of the substituent appears to have a significant effect on the absorbance maximum corresponding to the wavelength of excitation, increasing by 37 nm from 8 to 9. Although the emission wavelength increases very slightly over the same series, the net effect on the Stokes shift is a significant decrease with increasing electron donating capacity of the substituent.
as §3
The following material were obtained from Aldrich and were used without further purification: 2-hydroxy-5-nitrobenzaldehyde, N-acetylglycine, maleic anhydride, p-nitrophenylacetic acid, L-aspartic acid dimethyl ester hydrochloride, citraconic anhydride, dimethyl L-tartrate, dimethyl malonate. All reactions were carried out under an atmosphere of dry nitrogen employing conventional bench-top techniques except for reactions with thiols. ^13C-NMR and ^1H-NMR spectra were recorded on AMXR400 or AMX300 spectrometers and were referenced to the residual proton or ^13C signal of the solvent. Mass spectra were determined by FAB+ ionization on an AutoSpecQ spectrometer at the Regional Mass Spectrometry Centre at the Université de Montréal. Infrared spectra were recorded on a Perkin-Elmer (FTIR) spectrometer. Melting points (uncorrected) were determined on a Unimelt Tomas-Hoover or on a Gallenkamp meting point apparatus. Fluorescence spectra were recorded using a Varian Cary Eclipse fluorimeter and gel electrophoresis was carried out on a SpectraPhoresis 100 apparatus.

diCys-Fos [4] = biological target: T2, diCys-Fos; assay: Protein labeling in vitro, SDS-PAGE with UV illumination; type: biochemical; set-up: the C99S mutant of a fragment of Fos; conditions: 0.242 mM protein, 0.5 mM of 20 or 0.05 mM of 13, 25° C. overnight
Experimental: as §1, §2

T2 sequence (P01100 118-211 L161C/C204S limits assumed): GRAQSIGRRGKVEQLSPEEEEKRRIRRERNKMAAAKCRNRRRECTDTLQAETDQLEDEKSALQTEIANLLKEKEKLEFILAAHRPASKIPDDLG
T1 sequence (P01100 118-211 C204S limits assumed): as the sequence (P01100 118-211 L161C/C204S limits assumed) above, with C44L counted along it

fluorescent labeling of mCys-Fos (mCys-Fos): is not | solubility (Solubility; cell culture, plasma or biological fluid, read-out: limit of solubility in cell culture): 300 µM (≈ 159 µg/mL) | fluorescence of COS cells expressing diCys-Fos vs mock COS cells (diCys-Fos [2]; 10 μM, 20 minutes, room temperature): significant difference in fluorescence | cell permeability (diCys-Fos [2]; COS cells): confirming the cell permeability | Stokes shift [3]: 67 nm | λem (emission band) [3]: 525-650 nm | λem, wavelength corresponding to center of Full Width at Half Maximum of emission band [3]: 578 nm | λexc [3]: 511 nm | IF Ratio ([3]; ratio of areas under emission bands of fluorogen and thiol adduct): 8.5 | fluorescent labeling of diCys-Fos (diCys-Fos [4]): efficiently fluorescently labeled
Structure (SMILES): COC(=O)C[C@@H](C(=O)OC)N1C(=O)c2cc(N3C(=O)C=CC3=O)cc3cc(N4C(=O)C=CC4=O)cc(c23)C1=O [Compound 20, N-(3,6-Dimaleimidyl-1,8-naphthalyl)-L-aspartic acid dimethyl ester]
selectivity for diCys-Fos in the presence of other cytosolic proteins (diCys-Fos [1]): selectivity of 20 for its designated target protein | solubility in water / aqueous DMSO (Solubility): soluble in aqueous solutions containing as little as 5% DMSO | viable COS cells (COS cells; 300 μM): 70% | concentration with low cytotoxicity relative to that necessary for efficient labeling (COS cells; COS cells): 30 times | percentage of viable COS cells (COS cells; concentrations of up to 30 μM): unaffected
